Several values for one entry are separate records, joined by “and”; a condition that tells them apart may be missing. Equal values may be shown once. ± gives the expanded uncertainty stated by the source.
Legend:
[1] = Crystal, Calculated from knudsen effusion weight loss
[2] = molar enthalpy of vaporization or sublimation; details: 298.15 K, vacuum sublimation

| molar enthalpy ([2]; Crystal) [kcal/mol] | molar enthalpy ([2]; Liquid) [kcal/mol] | Compound | vapor or sublimation pressure ([1]; 293.25 K) | vapor or sublimation pressure ([1]; 295.17 K) | vapor or sublimation pressure ([1]; 297.09 K) | vapor or sublimation pressure ([1]; 299.21 K) | vapor or sublimation pressure ([1]; 301.16 K) | vapor or sublimation pressure ([1]; 303.08 K) | vapor or sublimation pressure ([1]; 305.19 K) | vapor or sublimation pressure ([1]; 307.16 K) | vapor or sublimation pressure ([1]; 309.09 K) |
| --- | --- | --- | --- | --- | --- | --- | --- | --- | --- | --- | --- |
| 21.7 ± 0.765 | – | CC(=O)c1ccc(Cl)c(Cl)c1 [3',4'-dichloroacetophenone] | 0.0001703 ± 8.5e-06 kPa and 0.0001647 ± 8.3e-06 kPa and 0.0001655 ± 8.3e-06 kPa | 0.0002238 ± 1.1e-05 kPa and 0.0002145 ± 1.1e-05 kPa and 0.000213 ± 1.1e-05 kPa | 0.0002738 ± 1.4e-05 kPa and 0.0002832 ± 1.4e-05 kPa and 0.0002774 ± 1.4e-05 kPa | 0.0003484 ± 1.7e-05 kPa and 0.0003522 ± 1.8e-05 kPa and 0.0003546 ± 1.8e-05 kPa | 0.0004547 ± 2.3e-05 kPa and 0.0004516 ± 2.3e-05 kPa and 0.0004492 ± 2.3e-05 kPa | 0.0005694 ± 2.9e-05 kPa and 0.0005819 ± 2.9e-05 kPa and 0.0005785 ± 2.9e-05 kPa | 0.0007368 ± 3.7e-05 kPa and 0.0007202 ± 3.6e-05 kPa and 0.0007224 ± 3.6e-05 kPa | 0.000944 ± 4.7e-05 kPa and 0.0009302 ± 4.7e-05 kPa and 0.0009113 ± 4.6e-05 kPa | 0.001174 ± 0.00012 kPa and 0.001186 ± 0.00012 kPa and 0.001176 ± 0.00012 kPa |
| 15.2 ± 0.669 | – | CC(=O)c1ccc(Cl)cc1Cl [2',4'-dichloroacetophenone] | – | – | – | – | – | – | – | – | – |
| – | 15.8 ± 0.717 | CC(=O)c1cc(Cl)ccc1Cl [2',5'-dichloroacetophenone] | – | – | – | – | – | – | – | – | – |

Source: the NIST ThermoML archive (doi:10.1016/j.jct.2010.09.005)
